Like-named read-outs stand apart in the source and are kept apart here.
What was measured:
Phytophthora infestans = conditions: 100 ppm copper
plant pathogen fungi = assay: Fengycin concentration of diluted culture inhibiting plant pathogen fungi; format: cell-based; conditions: culture in glutaminic acid/glucose solution diluted 10-20 times

Molecule	growth of Phytophthora infestans strains (Phytophthora infestans)	growth of P. syringae strains (P. syringae; 200 ppm copper)	growth of P. syringae strains (P. syringae; 400 ppm copper)	fengycin concentration which achieves a complete inhibition of the majority of the plant pathogen fungi (plant pathogen fungi)
O=S(=O)([O-])[O-].[Cu+2] [copper, copper-sulphate]	did not show growth anymore	all increased	none of them	
fengycin				10 to 12 mg/L

Source: patent US9288993B2, “Copper resistant, fengycin-producing Bacillus mojavensis strain for controlling vegetable pathogens, its use and compositions containing it” (Szegedi Tudományegyetem, priority 2011, dated 2016)
